Consider two compounds from ChEMBL document CHEMBL1201862, “PubChem BioAssay data set” (2004).

Some test systems named below: SW-620; COLO 205; HCT-15; NCI-H226; OVCAR-5; OVCAR-3; HL-60; UACC-62; DMS-114; RPMI-8226; TK-10; IGROV-1; SK-MEL-5; SNB-19; SK-MEL-2; NCI/ADR-RES.
Assay in all cases: NCI-60 cell line screen, 48 h

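Protocol summary: plate cells (96-well), add compound at 5 concentrations, incubate 48 h, interpolate endpoints linearly. At the GI50, growth is halved.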 Activity calls are given as the source filed them. No stated cut-off is given here; in the data, active = GI50 up to about 1.1 µM and inactive = higher.

Consider `Cc1cccc2c1c1ccc3c(c1n2C)C(=O)C=CC3=O`, for which the GI50 is 2.03 µM (inactive) with SW-620; 2.39 µM (inactive) in the experiment on COLO 205; 5.18 µM with HCT-15; 17.3 µM (inactive) in the experiment on NCI-H226; 15.9 µM (inactive) with OVCAR-5; 2.05 µM (inactive) with OVCAR-3. The GI50 was 0.521 µM (active) in the experiment on HL-60; 13.2 µM (inactive) in the experiment on UACC-62; 6.35 µM (inactive) with DMS-114; 2.04 µM (inactive) in the experiment on RPMI-8226; 2.79 µM (inactive) with TK-10; 18.3 µM (inactive) with IGROV-1. Also, the values for the GI50 with SK-MEL-5, in the experiment on SNB-19 and with SK-MEL-2 were 14.8 µM (inactive), 16.7 µM (inactive) and 15.6 µM (inactive), respectively.
Consider `CCOC(=O)COc1ccccc1/C=C1\CCC(CN(C)C)C1=O` (stereo unspecified), for which the GI50 in the experiment with SW-620 is 2.55 µM (inactive); in the experiment on COLO 205, 3.9 µM (inactive); in the experiment with NCI/ADR-RES, 3.48 µM (inactive); with HCT-15, 3.24 µM; with NCI-H226 it was 17.5 µM (inactive); with OVCAR-5 it was 17.9 µM (inactive). The GI50 is 7.82 µM (inactive) in the experiment on OVCAR-3; 0.607 µM (active) in the experiment on HL-60; 6.05 µM (inactive) with UACC-62; 10.3 µM (inactive) in the experiment with DMS-114; 0.902 µM (active) in the experiment with RPMI-8226; 12.9 µM (inactive) in the experiment on TK-10. The GI50 with IGROV-1 is 13.3 µM (inactive); in the experiment with SK-MEL-5, 10.4 µM (inactive); in the experiment on SNB-19, 9.2 µM (inactive); with SK-MEL-2 it was 10.6 µM (inactive).
